Data as given in publication PMC2954496 (Bioorganic & medicinal chemistry, 2010).
Values after ≈ are worked out from the molar mass of the structure shown.

Legend:
HIV-RT = conditions: preliminary mechanism of action studies; cited from earlier work
[1] = Water solubility analysis by HPLC; format: physicochemical

| SMILES | Inhibition of HIV-RT DNA-dependent DNA polymerase activity (HIV-RT) | solubility at 1 h [1] |
| --- | --- | --- |
| Cc1cc(=O)oc2c3c(ccc12)OC(C)(C)[C@H](OC(=O)[C@@]12CC[C@@](C)(C(=O)O1)C2(C)C)[C@@H]3OC(=O)[C@@]12CC[C@@](C)(C(=O)O1)C2(C)C [Compound 4-MDCK, 4-methyl DCK] | inhibited |  |
| Cc1cc(=O)c2c(C)cc3c(c2o1)[C@@H](OC(=O)[C@@]12CC[C@@](C)(C(=O)O1)C2(C)C)[C@@H](OC(=O)[C@@]12CC[C@@](C)(C(=O)O1)C2(C)C)C(C)(C)O3 [Compound 5, 3′R,4′R-Di-O-(−)-camphanoyl-2,5,2′,2′-tetramethyldihydropyrano[2,3-f]chromone] |  | 5.2 µg/mL (≈ 7.99 µM) |
